Here are results for 1 compound from US8048455B2, “Treatment of cancer and inflammatory disorder” (Academia Sinica, priority 2006, dated 2011).

Common to all, as to assay type: cell-based, murine
For one assay, the system named is human COX-2 promoter. Nature of the assay: COX-2 promoter-driven luciferase reporter assay in TPA-treated B16 melanoma cells. Particulars: for Suppression of full-length COX-2 promoter activity vs TPA only: TPA 50 ng/mL 6 h. An excerpt:
A double-mutated COX-2 promoter containing mutations on both NF-κB sites was also constructed (FIG. 2). PPGL-3-Basic vector was used as a negative control in luciferase assays. COX-2 reporter activity in arbitrary units (AU) was normalized to that for the Renilla luciferase reporter.
Murine melanoma B-16 cells co-transfected with the full-length pCOX-2-Luc and internal control plasmid pRL-TK-Luc plasmid constructs were stimulated without (control) or with TPA, in the absence or presence of the indicated concentrations of CREa8. An amount of 10 μg of total protein lysate was subjected to dual luciferase reporter assay. The induction fold of COX promoter activity by TPA treatment only is presented as 100%. The statistical analyses between […] and CREa8, aspirin, or indomethacin (Indo.) treatment were performed using Student's t-test.
B-16 cells were co-transfected with the full-length pCOX-2-Luc and internal control Renilla pRL-TK-Luc plasmid constructs with the LIPOFECTAMINE reagent (Invitrogen). The cells were then stimulated with vehicle (0.001% DMSO) or with 50 ng/mL TPA, in the absence or presence of dLGG for 6 hours. Ten μg of total protein lysate prepared with Passive Lysis Buffer (Promega) was subjected to dual luciferase reporter assay. The induction fold of COX-2 promoter activity by TPA treatment only is presented as 100%.
The contribution of specific cis-acting element binding sites on the transcription of COX-2 was examined. Data were obtained from 2 to 3 experiments with 3 to 6 replicates and expressed as mean±SD. Two-way ANOVA was used to analyze significance of differences.

In the next assay the test system is PGE2 production. Nature of the assay: LPS-induced PGE2 production in RAW 264.7 macrophages. The following applies: doses between 25 and 75 μg/mL. As for the experimental part:
PGE2 production was determined according to the procedure described in Chiang et al. Br J Pharmacol 2005; 146:352-63. Macrophages were pretreated with aspirin (500 μM, 3 h) to inactivate endogenous cyclooxygenase-1, washed, and incubated with test compounds for 1 hour before further incubation for 16 hours with or without LPS. PGE2 in the culture media was determined with ACE™ Competitive Enzyme Immunoassay (Cayman Chemical).
The above-mentioned test compounds were incubated with COX-2 enzyme and substrates before measuring the COX-2 activity. Celecoxib, a potent nonsteroidal anti-inflammatory drug (NSAID), was used as a positive control. […] The IC50 of the nonsteroidal anti-inflammatory drug celecoxib, used as a positive control, was 0.47 μg/mL. RAW 264.7 cells (1×10^4 cells/well) were treated with dLGG and then stimulated with LPS, and PGE2 in the culture medium was then measured.

Another assay relates to NF-κB•DNA complex. Nature of the assay: Electrophoretic mobility shift assay of NF-κB binding to consensus DNA in LPS-stimulated RAW 264.7 cells. The following applies: for NF-κB•DNA complex, of LPS alone: 90 minutes; for NF-κB•DNA complex level: 75 μg/mL. As for the experimental part:
EMSA was performed with the […]™ Chemiluminescent EMSA kit (Pierce Biotechnology, Rockford, Ill.). […] The DNA-protein complexes were subjected to 5-10% gradient PAGE. Competition assay with unlabeled oligonucleotide (cold DNA) was performed in parallel. […]

The subject of a further assay is NF-κB (p65). Nature of the assay: NF-κB p65 nuclear translocation in LPS-stimulated RAW 264.7 cells (immunoblotting, confocal microscopy). As for the experimental part:
(§1) Total cellular proteins and the specific cytosolic and nuclear proteins were prepared using methods described in Chiang et al. Protein content was measured by the Bradford method (Bio-Rad). Protein was resolved by 5-20% gradient SDS-PAGE and subjected to immunoblotting using enhanced chemiluminescence reagents (ECL, Amersham). Monoclonal antibodies against PARP (Transduction Laboratories, Lexington, Ky.), GA3PDH (Biogenesis, Poole, UK), α-tubulin (Oncogene Science, Cambridge, UK), COX-2 (Cayman Chemical), phospho-(Ser32)-IκBα, phospho-IKKα(Ser180)/IKKβ(Ser181) (New England Biolabs, Beverly, Mass.), iNOS, IκBα, IKKα/β or NF-κB p65 (RelA) (Santa Cruz Biotechnology, Santa Cruz, Calif.) were used.
RAW 264.7 cells were seeded in chamber slides for 1 hour, and then treated with DMSO or dLGG (75 μg/mL) for 1 hour, with or without LPS stimulation for an additional 90 minutes. The cells were fixed, permeabilized with 0.1% Triton X-100, and stained with Hoechst 33342 (DNA marker), FITC-labeled anti-α-tubulin Ab (cytoplasm marker), or rabbit anti-p65 antibody visualized with goat anti-rabbit Rhodamine Red-labeled secondary antibody for analysis with a Zeiss LSM 510 META confocal laser-scanning microscope.
The distribution of NF-κB (p65) in nucleus and cytoplasm was determined using immunoblotting. Cells were treated with various concentrations of dLGG for 1 hour and then stimulated with LPS (1 μg/mL) for another 90 min. Nuclear and cytosolic fractions were immunoblotted with p65 NF-κB antibody. A slight increase in nuclear p65 protein (1.5-fold) was detected when macrophages were treated with a low concentration of dLGG (5 μg/mL), compared to LPS alone (1.0). With higher concentrations of dLGG (25 to 75 μg/mL), the level of nuclear p65 decreased accordingly. Cytoplasmic levels of NF-κB (p65) were not affected by dLGG treatment of LPS-stimulated macrophages.
The effect of dLGG on NF-κB (p65) nuclear translocation was also examined by confocal microscopy. Macrophages were treated with 0.4% DMSO, or LPS (1 μg/mL) with or without dLGG (75 μg/mL), and stained with fluorescence-labeled antibodies against p65 (red). To distinguish nucleus from cytosol, cells were also stained with DNA-specific Hoechst 33342 (blue) and with anti-α-tubulin antibody (green). In vehicle-treated cells, p65 protein was mainly found in the cytosol of test cells.

A further assay relates to iNOS protein. Nature of the assay: iNOS protein expression (immunoblotting) in LPS-stimulated RAW264.7 cells. The following applies: LPS 1 μg/mL 18 h. As for the experimental part: as §1
RAW264.7 cells were treated with the indicated concentrations of dLGG for 1 hour then LPS (1 μg/mL) was added for 18 hours. Total cellular protein (20 μg) was then subjected to immunoblotting. Quantification of iNOS mRNA and protein expression involved normalization to GA3PDH (internal control) by densitometry. […] Thus, the dLGG-induced inhibition of NO production in LPS-stimulated macrophages is also mediated through suppression of both transcription and translation of iNOS.

In the case of `CC/C=C\C/C=C\C/C=C\CCCCCCCC(=O)OC[C@H](CO[C@@H]1O[C@H](CO)[C@H](O)[C@H](O)[C@H]1O)OC(=O)CCCCCCC/C=C\C/C=C\C/C=C\CC` [dLGG, 1,2-di-O-α-linolenoyl-3-O-β-galactopyranosyl-sn-glycerol], the “Suppression of full-length COX-2 promoter activity vs TPA only” value in the assay with human COX-2 promoter (50 μg/mL, B16 cells) amounted to 20%; in the assay with human COX-2 promoter (100 μg/mL, B16 cells), 33%. The “TPA-induced luciferase activity of −1334/−1 and −646/−1 promoter constructs (smaller)” value in the assay with human COX-2 promoter (100 μg/mL, B16 cells) is recorded as 65-68%. Moreover, in the assay on human COX-2 promoter (100 μg/mL, all transfected cells), the “TPA-activated increases in luciferase activity, truncated promoter constructs” value is reported as “able to fully inhibit”. Moreover, the “TPA-induced COX-2 promoter activity in mutant promoter constructs (CRE, NF-IL6, NF-κB)” value in the assay with human COX-2 promoter (B16 cells) was “able to suppress”. For the same compound, in the assay with PGE2 production, the “Reduction of LPS-induced PGE2 levels” value was 37-58%. Further, the “NF-κB•DNA complex, of LPS alone” value in the assay with NF-κB•DNA complex (25 μg/mL) came to 77%; in the assay with NF-κB•DNA complex (50 μg/mL) it was 23%. For the same compound, the “NF-κB•DNA complex level” value is 0.43 times that of LPS alone (1.0) in the assay on NF-κB•DNA complex (LPS 60 min), 0.30 times that of LPS alone (1.0) in the assay with NF-κB•DNA complex (LPS 90 min), 0.16 times that of LPS alone (1.0) in the assay on NF-κB•DNA complex (LPS 120 min) and 0.01 times that of LPS alone (1.0) with NF-κB•DNA complex (LPS 180 min). Besides, the “Inhibition of NF-κB•DNA complex formation (structure-activity study)” value in the assay with NF-κB•DNA complex (100 μM, LPS 1 μg/mL, 90 min) is given as “almost completely inhibited”. Further, the “Nuclear p65 protein compared to LPS alone (1.0)” value with NF-κB (p65) (5 μg/mL, LPS 90 min) was 1.5 fold. In addition, in the assay on NF-κB (p65) (75 μg/mL, LPS 1 μg/mL), the “p65 nuclear translocation by confocal microscopy” value is on record as “drastically inhibited”. For the same compound, in the assay with NF-κB (p65) (25 to 75 μg/mL, LPS 90 min), the “Level of nuclear p65” value is “decreased”. In the assay on NF-κB (p65) (LPS-stimulated macrophages), the “Cytoplasmic levels of NF-κB (p65)” value is reported as “not affected”. The iNOS protein level entry in the assay with iNOS protein was “Little iNOS protein was detected”.
